From the supplement of paper PMC10307832

Experiments:
Experiment in all cases: relative viability (nuclei count vs DMSO), 5 days (fraction); higher = more cells survive
[1] = system: HOP-62
How it was run: (§1)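 One day after seeding in 1536-well plates, lung cancer cell lines were dosed by pin tool. Dosing was either single-drug or a fixed anchor-drug dose plus five library-drug doses (not always all listed) in √10 steps. After 5 days, nuclei were stained in one fix-and-stain step and counted on 4× images, and relative viability is the nuclei count of treated wells over that of vehicle wells, given as the median of duplicate plates.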

[2] = system: NCI-H2009
How it was run: as §1

[3] = system: NCI-H3122
How it was run: as §1

[4] = system: NCI-H2228
How it was run: as §1

[5] = system: SW 1573
How it was run: as §1

[6] = system: SK-MES-1
How it was run: as §1

[7] = system: NCI-H2085
How it was run: as §1

[8] = system: NCI-H2347
How it was run: as §1

[9] = system: NCI-H596
How it was run: as §1

[10] = system: NCI-H1734
How it was run: as §1

[11] = system: LK-2
How it was run: as §1

[12] = system: RERF-LC-KJ
How it was run: as §1

[13] = system: HCC-366
How it was run: as §1

[14] = system: LC-2-ad
How it was run: as §1

[15] = system: PC-14
How it was run: as §1

[16] = system: CAL-12T
How it was run: as §1

[17] = system: SW 900
How it was run: as §1

[18] = system: HCC-78
How it was run: as §1

[19] = system: NCI-H1993
How it was run: as §1

[20] = system: NCI-H2405
How it was run: as §1

[21] = system: NCI-H1355
How it was run: as §1

[22] = system: ChaGo-K-1
How it was run: as §1

[23] = system: EMC-BAC-2
How it was run: as §1

Question: With `CCCCCCCCCCCC1=C(O)C(=O)C=C(O)C1=O` [Embelin] + COc1cccc2cc(-c3nc([C@H]4CC[C@H](C(=O)O)CC4)n4ncnc(N)c34)[nH]c12 [OSI-027] (partner 0.5 µM) as the compound, how does the relative viability ([1]; first compound 0.08 µM) read?
Answer: 0.88

Question: And the relative viability ([1]; first compound 0.8 µM)?
Answer: 0.922

Question: And the relative viability ([1]; first compound 2.53 µM)?
Answer: 0.931

Question: What about the relative viability ([1]; first compound 8 µM) of the same compound?
Answer: 0.812

Question: And the relative viability ([2]; first compound 0.08 µM)?
Answer: 0.728

Question: And the relative viability ([2]; first compound 0.8 µM)?
Answer: 0.736

Question: And the relative viability ([2]; first compound 2.53 µM)?
Answer: 0.492

Question: And the relative viability ([2]; first compound 8 µM)?
Answer: 0.594

Question: And the relative viability ([3]; first compound 0.08 µM)?
Answer: 0.857

Question: What about the relative viability ([3]; first compound 0.8 µM) of the same compound?
Answer: 1.15

Question: What about the relative viability ([3]; first compound 2.53 µM) of the same compound?
Answer: 1.31

Question: What about the relative viability ([3]; first compound 8 µM) of the same compound?
Answer: 0.875

Question: What about the relative viability ([4]; first compound 0.08 µM) of the same compound?
Answer: 0.697

Question: What about the relative viability ([4]; first compound 0.8 µM) of the same compound?
Answer: 0.673

Question: What about the relative viability ([4]; first compound 2.53 µM) of the same compound?
Answer: 0.726

Question: What about the relative viability ([4]; first compound 8 µM) of the same compound?
Answer: 0.485

Question: What about the relative viability ([5]; first compound 0.08 µM) of the same compound?
Answer: 0.6

Question: What about the relative viability ([5]; first compound 0.8 µM) of the same compound?
Answer: 0.768

Question: And the relative viability ([5]; first compound 2.53 µM)?
Answer: 0.896

Question: And the relative viability ([5]; first compound 8 µM)?
Answer: 0.573

Question: And the relative viability ([6]; first compound 0.08 µM)?
Answer: 0.648

Question: What about the relative viability ([6]; first compound 0.8 µM) of the same compound?
Answer: 0.66

Question: And the relative viability ([6]; first compound 2.53 µM)?
Answer: 0.572

Question: What about the relative viability ([6]; first compound 8 µM) of the same compound?
Answer: 0.521

Question: And the relative viability ([7]; first compound 0.08 µM)?
Answer: 0.743

Question: And the relative viability ([7]; first compound 0.8 µM)?
Answer: 0.84

Question: What about the relative viability ([7]; first compound 2.53 µM) of the same compound?
Answer: 0.699

Question: And the relative viability ([7]; first compound 8 µM)?
Answer: 0.646

Question: What about the relative viability ([8]; first compound 0.08 µM) of the same compound?
Answer: 0.428

Question: What about the relative viability ([8]; first compound 0.8 µM) of the same compound?
Answer: 0.468

Question: What about the relative viability ([8]; first compound 2.53 µM) of the same compound?
Answer: 0.412

Question: What about the relative viability ([8]; first compound 8 µM) of the same compound?
Answer: 0.527

Question: What about the relative viability ([9]; first compound 0.08 µM) of the same compound?
Answer: 0.773

Question: What about the relative viability ([9]; first compound 0.8 µM) of the same compound?
Answer: 0.854

Question: And the relative viability ([9]; first compound 2.53 µM)?
Answer: 0.771

Question: And the relative viability ([9]; first compound 8 µM)?
Answer: 0.454

Question: And the relative viability ([10]; first compound 0.08 µM)?
Answer: 0.648

Question: And the relative viability ([10]; first compound 0.8 µM)?
Answer: 0.771

Question: And the relative viability ([10]; first compound 2.53 µM)?
Answer: 0.618

Question: What about the relative viability ([10]; first compound 8 µM) of the same compound?
Answer: 0.608

Question: What about the relative viability ([11]; first compound 0.08 µM) of the same compound?
Answer: 0.246

Question: And the relative viability ([11]; first compound 0.8 µM)?
Answer: 0.226

Question: What about the relative viability ([11]; first compound 2.53 µM) of the same compound?
Answer: 0.22

Question: What about the relative viability ([11]; first compound 8 µM) of the same compound?
Answer: 0.194

Question: What about the relative viability ([12]; first compound 0.08 µM) of the same compound?
Answer: 0.585

Question: What about the relative viability ([12]; first compound 0.8 µM) of the same compound?
Answer: 0.529

Question: And the relative viability ([12]; first compound 2.53 µM)?
Answer: 0.545

Question: And the relative viability ([12]; first compound 8 µM)?
Answer: 0.494

Question: And the relative viability ([13]; first compound 0.08 µM)?
Answer: 0.926

Question: What about the relative viability ([13]; first compound 0.8 µM) of the same compound?
Answer: 1.16

Question: And the relative viability ([13]; first compound 2.53 µM)?
Answer: 1.03

Question: And the relative viability ([13]; first compound 8 µM)?
Answer: 0.905

Question: And the relative viability ([14]; first compound 0.08 µM)?
Answer: 0.85

Question: What about the relative viability ([14]; first compound 0.8 µM) of the same compound?
Answer: 1.02

Question: What about the relative viability ([14]; first compound 2.53 µM) of the same compound?
Answer: 0.97

Question: And the relative viability ([14]; first compound 8 µM)?
Answer: 0.516

Question: And the relative viability ([15]; first compound 0.08 µM)?
Answer: 0.81

Question: What about the relative viability ([15]; first compound 0.8 µM) of the same compound?
Answer: 1.13

Question: And the relative viability ([15]; first compound 2.53 µM)?
Answer: 1.24

Question: What about the relative viability ([15]; first compound 8 µM) of the same compound?
Answer: 0.848

Question: What about the relative viability ([16]; first compound 0.08 µM) of the same compound?
Answer: 0.538

Question: And the relative viability ([16]; first compound 0.8 µM)?
Answer: 0.817

Question: And the relative viability ([16]; first compound 2.53 µM)?
Answer: 0.513

Question: What about the relative viability ([16]; first compound 8 µM) of the same compound?
Answer: 0.665

Question: What about the relative viability ([17]; first compound 0.08 µM) of the same compound?
Answer: 0.496

Question: And the relative viability ([17]; first compound 0.8 µM)?
Answer: 0.541

Question: What about the relative viability ([17]; first compound 2.53 µM) of the same compound?
Answer: 0.553

Question: What about the relative viability ([17]; first compound 8 µM) of the same compound?
Answer: 0.347

Question: And the relative viability ([18]; first compound 0.08 µM)?
Answer: 0.371

Question: What about the relative viability ([18]; first compound 0.8 µM) of the same compound?
Answer: 0.369

Question: What about the relative viability ([18]; first compound 2.53 µM) of the same compound?
Answer: 0.343

Question: And the relative viability ([18]; first compound 8 µM)?
Answer: 0.41

Question: What about the relative viability ([19]; first compound 0.08 µM) of the same compound?
Answer: 0.577

Question: What about the relative viability ([19]; first compound 0.8 µM) of the same compound?
Answer: 0.556

Question: What about the relative viability ([19]; first compound 2.53 µM) of the same compound?
Answer: 0.606

Question: What about the relative viability ([19]; first compound 8 µM) of the same compound?
Answer: 0.547

Question: What about the relative viability ([20]; first compound 0.08 µM) of the same compound?
Answer: 0.64

Question: What about the relative viability ([20]; first compound 0.8 µM) of the same compound?
Answer: 0.665

Question: What about the relative viability ([20]; first compound 2.53 µM) of the same compound?
Answer: 0.659

Question: What about the relative viability ([20]; first compound 8 µM) of the same compound?
Answer: 0.658

Question: What about the relative viability ([21]; first compound 0.08 µM) of the same compound?
Answer: 0.445

Question: And the relative viability ([21]; first compound 0.8 µM)?
Answer: 0.559

Question: What about the relative viability ([21]; first compound 2.53 µM) of the same compound?
Answer: 0.422

Question: And the relative viability ([21]; first compound 8 µM)?
Answer: 0.279

Question: And the relative viability ([22]; first compound 0.08 µM)?
Answer: 0.572

Question: What about the relative viability ([22]; first compound 0.8 µM) of the same compound?
Answer: 0.636

Question: What about the relative viability ([22]; first compound 2.53 µM) of the same compound?
Answer: 0.699

Question: And the relative viability ([22]; first compound 8 µM)?
Answer: 0.556

Question: And the relative viability ([23]; first compound 0.08 µM)?
Answer: 0.375

Question: What about the relative viability ([23]; first compound 0.8 µM) of the same compound?
Answer: 0.47

Question: What about the relative viability ([23]; first compound 2.53 µM) of the same compound?
Answer: 0.349

Question: And the relative viability ([23]; first compound 8 µM)?
Answer: 0.353
